Legend:
[1] = test system: CD19 CAR-T cells co-cultured with Raji or K562/CD19+ target cells; experiment: CD19 CAR-T cell viability and effector function in the presence of GSI; assay type: cell-based, human
Method: (A) CD19 staining of K562 CD19^+ and Raji cells that were cultured with or without GSI for ±12-16 h. Isotype control shown as gray line.
(C) CD19 CAR-T cells were co-cultured with K562/CD19 target cells in media containing various concentrations of RO4929097. RO4929097 inhibits CD19 CAR-T cell effector function at concentrations of 3 μM when co-cultured, as determined by measuring IL-2 (upper panel) and IFNγ (lower panel) production.
(D) IL-2 production by CD19 CAR-T cells cultured with target cells in the presence of increasing concentrations of GSI RO4929097.
(E) IL-2 production by CD19 CAR-T cells cultured with target cells (“K562 CD19”) or control cells (“KS562 BCMA”) in the presence of increasing concentrations of GSI RO4929097. Cells were administered the indicated amounts of the GSI and then washed (empty bars) or not (filled bars).
(F) Data from another experiment showing IL-2 production by CD19 CAR-T cells after overnight co-culture with K562 BCMA^+ or K562 CD19^+ cells following pre-incubation with varying concentrations of GSI. After washing, GSI was either added back in (+/+) or left out of the co-culture (+/−) to assess the reversibility of cytokine production.
(G) Specific lysis, by CD19 CAR-T cells, of the indicated target or control cells in the presence of GSI RO4929097.
(H) Proliferation of CD19 CAR-T cells cultured with CD19-expressing target cells in the presence or absence of GSI or with control cells in the absence of GSI. Cells were stained with CFSE and proliferation was measured by flow cytometry.
(I) Graphic representation of the number of cell divisions of CD19 CAR-T cells in the presence of the indicated concentrations of GSI RO4929097. The width of the horizontal bars represents the proportion of CAR-T cells in culture that divided the indicated number of generations (i.e., 5, 4, 3, 2, 1, or 0 generations) over the course of the experiment.
[…] Cell counts (CD8 staining) during expansion of CD19-specific CAR-T cells with CD19^+ TM LCL cells and exogenous IL-2 in the absence of GSI (circle) or the presence of GSI at 0.5 μM (square) or 5 μM (triangle).
(K) Cell counts of CD19-specific CAR-T cells (CD4:CD8 (1:1) expanded with CD19^+ TM. LCL cells in the absence or presence of GSI as indicated, but without the addition of exogenous IL-2.
(L) IFN-γ concentrations in supernatants of GSI-expanded anti-CD19 CAR CD8^+ T cells following re-stimulation with K562 cells (no antigen), K562 CD19^+ cells, or Raji cells.
(M, N) Production of IFN-γ (M) and IL-2 (N) by the CD4:CD8 anti-CD19 CAR-T cell mixture following re-stimulation with the indicated cell lines in the absence of GSI or the presence of either 0.5 μM or 5 μM GSI.
Without wishing to be bound by theory, a potential caveat of using GSI to augment BCMA on myeloma cells to improve CAR-T cell recognition is that high concentrations of GSI may inhibit T-cell signaling and effector functions. See Eagar et al., Immunity 20(4):407, 2004. To evaluate potential effects of GSI on CAR T cells in a setting where target ligand expression remains stable, CD19 CAR-T cells were co-cultured with Raji or K562/CD19^+ target cells in the presence of GSI (0.01 μM to 100 μM) and measured viability and effector function. Over this concentration range there was no effect on CD19 antigen expression (FIG. 5A) or on CAR-T cell viability after 24 hours (FIG. 5B). […] However, the ability of the CD19 CAR-T cells to specifically kill target cells was not affected by GSI concentration (FIG. 5G). […] To further investigate the dosage effect of GSI on CAR-T cell division, a dose titration of GSI RO4929097 was added to co-cultures of CD19 CAR-T and target cells.

primary human T cells = experiment: Primary human T cell viability in GSI, trypan blue dye exclusion; assay type: cell-based; conditions: 0.01 μM to 100 μM; 24 hours
Method: (B) Primary human T cells were cultured in GSI RO4929097 at concentrations ranging from 0.01 μM to 100 μM and viability was measured by trypan blue dye exclusion after 24 hours. There was no effect of GSI, at any concentration, on T cell viability.

[2] = test system: MM.1R myeloma cells in NSG mice; experiment: GSI activity in disseminated MM.1R xenograft model (surface BCMA, serum sBCMA); assay type: in vivo, mouse
Method: (A) Experimental scheme for a disseminated xenograft murine myeloma model. NSG mice were irradiated (275 rad) to facilitate tumor engraftment and received human MM tumor cells (5×10^6 MM.1R) followed by GSI treatment (30 mg/kg). […] (B) Fold change in surface BCMA expression on myeloma cells in mice euthanized at the indicated timepoints following the second GSI administration. (C) Levels of sBCMA in sera from mouse sacrificed at the indicated timepoints after administration of RO4929097. To investigate whether the sBCMA-inhibiting effects of GSI RO4929097 described in Example 4 could be replicated in vivo, a mouse xenograft model of human MM was tested as illustrated in FIG. 6A. Briefly, immunodeficient NOD/SCID gamma (NSG) mice (The Jackson Laboratory) received sublethal irradiation (275 rad) at day −1, followed by 5×10^6 MM.1R cells the next day (day 0). GSI RO4929097 (30 mg/kg) was administered by oral gavage at day 19 and day 20. Mice were sacrificed at different times after the second gavage administration of the GSI and blood and bone marrow samples were taken for analysis. GSI dosing was followed by a rapid increase (>3-fold by 4 hours post-second gavage) in surface BCMA expression on the tumor cells (FIG. 6B) and a concurrent decrease in sBCMA (FIG. 6C).

MM cell lines = experiment: Viability of MM cell lines cultured in GSI, propidium iodide staining; assay type: cell-based, human; conditions: 1.0 μM in culture
Method: (L) Viability of indicated MM-expressing cells as measured by propidium iodide staining of cell lines cultured in 1 μM GSI.
Next, the effect of removing GSI from MM cell culture was examined. […] Finally, the viability of the tested MM cell lines was not affected by addition of 1.0 μM RO429097 to culture (FIG. 3L).

[3] = expanded in 5 μM, 0.5 μM or no GSI

Compound: CC(C)(C(=O)NCC(F)(F)C(F)(F)F)C(=O)N[C@@H]1C(=O)Nc2ccccc2-c2ccccc21 [RO4929097]
- proliferation of CD19 CAR-T cells in response to target cells ([1]; 10 μM GSI vs absence of GSI): less effectively
- expansion of CD19 CAR-T cells ([1]; 8 days in culture with or without exogenous IL-2, GSI 0.5 or 5 μM): did not show a decrease in expansion
- CD19 antigen expression on target cells ([1]; GSI 0.01 μM to 100 μM): no effect
- CAR-T cell viability ([1]; GSI 0.01 μM to 100 μM, 24 hours): no effect
- T cell function (cytokine production, cell lysis activity, proliferation) ([1]; GSI at therapeutic levels): does not affect T cell function
- IFN-γ production on re-stimulation after expansion in GSI [1, 3]: did not show a significant difference
- IL-2 production on re-stimulation after expansion in GSI [1, 3]: not markedly different
- CAR-T cell division ([1]; non-therapeutic dose (10 μM)): detectably inhibit proliferation
- specific killing of target cells by CD19 CAR-T cells ([1]; range of GSI concentrations): not affected
- CAR-T cell division ([1]; therapeutic doses of GSI (0.01 μM-1 μM)): essentially unaffected or only slightly affected
- T cell viability (primary human T cells): no effect
- time after second gavage within which observed effects were generally reduced ([2]; 30 mg/kg oral gavage): ≤ 48 h
- sBCMA in sera ([2]; 30 mg/kg oral gavage day 19 and 20): decrease
- increase in surface BCMA expression on tumor cells ([2]; 30 mg/kg oral gavage day 19 and 20, 4 hours post-second gavage): > 3 fold
- viability of MM cell lines (MM cell lines): not affected
